Results on eleven compounds are retold here after US10214512B2, “Factor XIA inhibitors” (MERCK SHARP & DOHME CORP., priority 2015, dated 2019).

Test [1] concerns the target purified human Factor XIa (Homo sapiens (Human), UniProt P03951). The test can be described thus: Factor XIa Assay. In kind it is biochemical. The settings on record: purified human Factor XIa 40 pM; substrate Z-Gly-Pro-Arg-AFC 100 μM; 50 mM HEPES pH 7.4; read-out: Human FXIa Ki. The method, boiled down:
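Purified human FXIa at 40 pM final with fluorogenic Z-Gly-Pro-Arg-AFC at 100 μM, in 50 mM HEPES pH 7.4, 150 mM NaCl, 5 mM CaCl2, 0.1% PEG 8000, at rt or 37° C. Initial velocities measured after enzyme–inhibitor equilibration; Ki derived from Vo/Vi versus [I] assuming competitive inhibition.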

The target in test [2] is purified Human plasma Kallikrein (Homo sapiens (Human), UniProt P03952). Description: Kallikrein Assay. The settings on record: purified Human plasma Kallikrein 0.5 nM; substrate Acetyl-K-P-R-AFC; 50 mM HEPES pH 7.4; Ki from IC50 by Cheng Prusoff. In kind it is biochemical. In a few lines: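 Purified human plasma kallikrein (0.5 nM) with fluorogenic Ac-K-P-R-AFC ([…]) in 50 mM HEPES pH 7.4, 150 mM NaCl, 5 mM CaCl2, 0.1% PEG 8000, at rt or 37 °C. Substrate hydrolysis rate read with and without inhibitor; IC50 from four-parameter logistic fit, converted to Ki by Cheng–Prusoff.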
purified Human plasma Kallikrein, sequence (P03952 391-638): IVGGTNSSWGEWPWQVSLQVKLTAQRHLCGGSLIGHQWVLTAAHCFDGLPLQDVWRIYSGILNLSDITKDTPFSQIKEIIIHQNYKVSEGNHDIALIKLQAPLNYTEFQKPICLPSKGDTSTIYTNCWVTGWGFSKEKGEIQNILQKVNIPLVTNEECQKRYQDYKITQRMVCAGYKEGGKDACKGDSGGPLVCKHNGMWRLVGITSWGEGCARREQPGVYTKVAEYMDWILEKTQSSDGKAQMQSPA
purified Human plasma Kallikrein, sequence (P03952 20-390 partner): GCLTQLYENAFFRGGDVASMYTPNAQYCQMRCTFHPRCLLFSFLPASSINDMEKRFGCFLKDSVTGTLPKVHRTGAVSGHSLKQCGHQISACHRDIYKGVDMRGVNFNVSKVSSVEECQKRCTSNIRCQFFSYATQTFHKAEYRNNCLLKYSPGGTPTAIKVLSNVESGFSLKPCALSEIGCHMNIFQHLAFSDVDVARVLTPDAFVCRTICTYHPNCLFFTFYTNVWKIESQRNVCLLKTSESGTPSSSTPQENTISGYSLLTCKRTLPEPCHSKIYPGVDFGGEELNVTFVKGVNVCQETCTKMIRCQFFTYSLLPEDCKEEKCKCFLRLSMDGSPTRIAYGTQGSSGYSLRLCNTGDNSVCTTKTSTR

pKi: −log10 of the molar value.

purified human Factor XIa, sequence (P03951 388-625): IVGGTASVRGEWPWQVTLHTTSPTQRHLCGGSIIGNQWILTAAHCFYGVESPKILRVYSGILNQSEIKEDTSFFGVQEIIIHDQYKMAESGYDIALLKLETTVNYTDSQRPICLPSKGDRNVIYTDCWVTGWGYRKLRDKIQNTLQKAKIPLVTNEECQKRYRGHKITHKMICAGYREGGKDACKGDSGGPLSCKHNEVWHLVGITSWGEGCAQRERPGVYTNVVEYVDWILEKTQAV
purified human Factor XIa, sequence (P03951 19-387 partner): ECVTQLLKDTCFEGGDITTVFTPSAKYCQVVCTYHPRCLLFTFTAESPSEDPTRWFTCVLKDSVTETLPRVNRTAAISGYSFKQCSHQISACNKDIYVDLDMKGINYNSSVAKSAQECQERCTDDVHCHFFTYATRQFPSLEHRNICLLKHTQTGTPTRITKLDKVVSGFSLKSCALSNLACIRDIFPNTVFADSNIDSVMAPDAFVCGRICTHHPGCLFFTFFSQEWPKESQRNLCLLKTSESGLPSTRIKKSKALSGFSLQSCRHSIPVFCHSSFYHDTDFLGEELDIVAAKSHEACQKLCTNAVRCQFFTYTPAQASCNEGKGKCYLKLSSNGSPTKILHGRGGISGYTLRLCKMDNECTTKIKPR

As to `COC(=O)Nc1ccc2c(c1)NC(=O)C(C)CCCC(c1ccc(-c3c(F)ccc(Cl)c3F)c[n+]1[O-])c1ccc(F)c-2c1` (single isomer, unassigned) [Example 86-a, 5-(3-Chloro-2,6-difluorophenyl)-2-(1^6-fluoro-2^4-((methoxycarbonyl)amino)-5-methyl-4-oxo-3-aza-1(1,3),2(1,2) -dibenzenacyclononaphane-9-yl)pyridine 1-oxide], the figures for the pKi in test [1] and in test [2] were 8.20 and 8.89, respectively.
`O=C1CCCC[C@H](c2ccc(-c3cc(Cl)ccc3-n3cc(C(F)(F)F)cn3)c[n+]2[O-])c2cccc(c2)-c2c(cnn2C(F)F)N1` (single isomer, unassigned) [Example 167]: the values for the pKi in test [1] and in test [2] were 8.86 and 6.42, respectively.
For the compound `COC(=O)Nc1ccc2c(c1)NC(=O)C1(CCC[C@H](c3ccc(-c4c(F)cccc4OC(F)F)c[n+]3[O-])c3nc-2c(C)[nH]3)CC1` (single isomer, unassigned) [Example 148], the pKi in test [1] was 8.60; in test [2], 7.43.
For the compound `O=C1CCCCC(c2ccc(-c3cc(F)ccc3-n3cnnn3)c[n+]2[O-])c2cccc(c2)-c2cc(F)ccc2N1` (single isomer, unassigned) [Example 89-a, 5-(5-fluoro-2-(1H-tetrazol-1-yl)phenyl)-2-(2^5-fluoro-4-oxo-3-aza-1(1,3),2(1,2)-dibenzenacyclononaphane-9-yl)pyridine 1-oxide], the pKi in test [1] is 9.41; in test [2] it was 7.87.
The like results for `COC(=O)Nc1ccc2c(c1)NC(=O)CCCC[C@H](c1ccc(-c3cc(Cl)ccc3-n3cc(C#N)cn3)c[n+]1[O-])c1cccc-2c1` (single isomer, unassigned) [Example 41] were, in that order, 9.72 and 8.20.
With `COC(=O)Nc1ccc2c(c1)NC(=O)[C@H](C)CCC[C@H](c1ccc(-c3c(F)cccc3F)c[n+]1[O-])c1nc-2c(C)[nH]1` (single isomer, unassigned) [Example 143-b], the pKi in test [1] is 10.00; in test [2] it was 9.40.
Taken in the same sequence, the figures for `COC(=O)Nc1ccc2c(c1)NC(=O)CCCC[C@H](c1ccc(-c3c(F)ccc(Cl)c3F)c[n+]1[O-])c1cc-2ncc1F` (single isomer, unassigned) [Example 72] were 9.30 and 8.53.
The like results for `C[C@@H]1CCC[C@H](c2ccc(-c3ccccc3-n3cc(Cl)nn3)c[n+]2[O-])c2cccc(c2)-c2c(cnn2C(F)F)NC1=O` (single isomer, unassigned) [Example 172-a] were, in that order, 8.86 and 6.42.
Consider `O=C1CCCCC(c2ccc(-c3cc(Cl)ccc3-n3cc(C(F)F)nn3)c[n+]2[O-])c2nc(c[nH]2)-c2cc(F)ccc2N1` (single isomer, unassigned) [Example 105-a, (Z)-5-(5-Chloro-2-(4-(difluoromethyl)-1H-1,2,3-triazol-1-yl)phenyl)-2-(2^5-fluoro-4-oxo-1^1H-3-aza-1 (4,2)-imidazola-2(1,2)-benzenacyclononaphane-9-yl)pyridine 1-oxide], for which the pKi was 9.25 in test [1] and 7.76 in test [2].
For the compound `CCOC(=O)Nc1ccc2c(c1)NC(=O)CCCCC(c1ccc(-c3c(F)ccc(Cl)c3F)c[n+]1[O-])c1nc-2c[nH]1` (single isomer, unassigned) [Example 109-a, (Z)-5-(3-chloro-2,6-difluorophenyl)-2-(2^4-((ethoxycarbonyl)amino)-4-oxo-1^1H-3-aza-1(4,2)-imidazola-2(1,2)-benzenacyclononaphane-9-yl)pyridine 1-oxide], the pKi in test [1] is 9.64; in test [2], 9.11.
The like results for `COC(=O)Nc1ccc2c(c1)NC(=O)CCCC[C@H](c1ccc(-c3cc(Cl)ccc3OC(F)(F)F)c[n+]1[O-])c1cccc-2c1` (single isomer, unassigned) [Example 30] were, in that order, 9.42 and 8.17.
